What is called IC50 is the point on the concentration scale where inhibition reaches its midpoint.

The source of these data is ChEMBL document CHEMBL5728881, “Substituted 6-azabenzimidazole compounds” (2021).

The target of this assay is Mitogen-activated protein kinase kinase kinase kinase 1 (Homo sapiens, UniProt Q92918). In words: TBHPK1 IC50 Assay: Ten nanoliters of test compounds dissolved in DMSO at various concentrations were dispensed into a 384-well ProxiPlate (PerkinElmer #6008289). Five microliters of a solution of recombinant HPK1 diluted in HPK1 kinase assay buffer (50 mM BES [N,N-Bis(2-hydroxyethyl)-2-aminoethanesulfonic acid], pH 7.0; 10 mM magnesium chloride; 0.01% Triton X-100; 1 mM dithiothreitol; 0.01% bovine serum albumin; 0.1 mM sodium orthovanadate) was added to the compound-containing plate and was incubated for 15 minutes at 25° C. Five microliters of a mixture of ATP (Sigma-Aldrich #A6559) and peptide substrate STK S1 (Cisbio #61ST1BLC) diluted in HPK1 kinase assay buffer was then added to start the reaction. Final concentrations were 0.15 nM for HPK1, 10 μM for ATP, and 1 μM for the STK S1 peptide substrate. The reaction mixture was incubated at 25° C. for 3 hours and was stopped with the addition of 10 μl of an EDTA (Ethylenediaminetetraacetic acid)-containing detection buffer (Cisbio #62SDBRDF) supplemented with Europium cryptate-labeled anti-phospho-serine/threonine antibodies (Cisbio #62ST1PEJ) and XL665-labeled streptavidin (Cisbio #610SAXLG). The mixture was incubated for 16 hours at room temperature and peptide phosphorylation was measured by time-resolved fluorescence energy transfer (665 nm/620 nm) on an Envision plate reader (PerkinElmer).
Chain of Mitogen-activated protein kinase kinase kinase kinase 1 (Q92918 whole entry): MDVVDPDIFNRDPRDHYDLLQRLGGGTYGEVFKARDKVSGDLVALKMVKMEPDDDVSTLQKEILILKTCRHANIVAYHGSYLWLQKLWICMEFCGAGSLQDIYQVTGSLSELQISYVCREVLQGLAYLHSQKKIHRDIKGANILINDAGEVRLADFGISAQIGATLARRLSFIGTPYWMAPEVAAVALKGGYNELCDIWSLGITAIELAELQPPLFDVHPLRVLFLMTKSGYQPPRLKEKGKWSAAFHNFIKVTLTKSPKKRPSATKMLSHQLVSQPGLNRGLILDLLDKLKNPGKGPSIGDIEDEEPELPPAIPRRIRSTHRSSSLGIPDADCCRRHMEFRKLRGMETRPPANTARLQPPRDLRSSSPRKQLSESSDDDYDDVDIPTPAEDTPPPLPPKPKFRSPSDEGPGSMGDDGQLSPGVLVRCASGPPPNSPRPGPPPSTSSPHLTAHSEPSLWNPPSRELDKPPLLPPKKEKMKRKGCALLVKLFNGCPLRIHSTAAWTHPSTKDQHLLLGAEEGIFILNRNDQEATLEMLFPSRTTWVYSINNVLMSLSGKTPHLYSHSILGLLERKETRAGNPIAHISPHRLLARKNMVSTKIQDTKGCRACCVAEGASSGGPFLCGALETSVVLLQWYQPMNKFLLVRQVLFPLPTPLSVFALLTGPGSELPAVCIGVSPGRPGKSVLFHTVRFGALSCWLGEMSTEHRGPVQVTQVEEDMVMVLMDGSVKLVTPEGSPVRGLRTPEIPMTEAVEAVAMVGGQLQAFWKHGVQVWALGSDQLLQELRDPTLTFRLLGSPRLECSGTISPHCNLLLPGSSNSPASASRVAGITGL

`CNC(=O)c1cc(Nc2nc(-c3ccc4c(c3)N([C@H]3C[C@@H](N5CC[C@H](C(F)F)C5)C3)C(=O)C4(C)C)cc3ncn(C(C)C)c23)ccc1C`: the IC50 was found to be 0.2 nM.
Regarding `CC(C)n1cnc2cc(-c3cnc4c(c3)N([C@H]3C[C@](C)(N5CCC6CC6C5)C3)C(=O)C4(C)C)nc(Nc3cc(C(=O)NC4(CF)CC4)c(Cl)c(F)c3F)c21` (some centres not stated), the IC50 amounted to 0.09 nM.
